Laboratory results as given in a melting point compilation (Tetko et al.; mined from patent text by program, amines drawn as free bases though some values may be those of a salt).

| melting point [°C] | Structure (SMILES) |
| --- | --- |
| 195 to 198 | COc1cc2[nH]c(=O)c3c(c2cc1OC)CCN(CCC1CCCCC1)C3 |
| 109 to 111 | CCOC(=O)c1sc(C)c(C(=O)OCC)c1OC |
| 110 | CCOC(=O)[C@H](Cc1cccc(C#N)c1)NS(=O)(=O)c1ccc2c(c1)CN(C(C)C)CC2 |
| 207 to 208 | COc1ccc(-c2ccc(C(N)=O)c(Cl)c2)cc1 |
| 109 to 113 | CCOc1ccc(-c2nc(-c3cccc(CO)n3)cs2)cc1OCC |
| 168 | COC(=O)N(C(=O)NN=C1c2ccc(Cl)cc2CC1(O)C(=O)OC)c1ccc(OC(F)(F)F)cc1 (stereo unspecified) |
| 200 | O=C(NCc1ccc(Cl)cc1)c1ccc2sc(CN3CCOCC3)cc2c1O |
| 204 to 206 | COc1nc(Br)cnc1NS(=O)(=O)c1ccccc1-c1ccc(C)cc1 |
| 163 to 164 | CCn1nc(OCC(=O)c2cccs2)c(-c2ccc(F)cc2)c1-c1ccc(S(C)(=O)=O)cc1 |
| 114 to 115 | COC(=O)c1ccc(CSC)nc1C1=NC(C)(C(C)C)C(=O)N1 (stereo unspecified) |
| 238 | C#CCOc1c(OC)cccc1-c1nc2ncccc2[nH]1 |
| 98 to 103 | COC(=O)C=C(C)c1ccc(CC(C)(C)NCC(O)c2ccccc2)cc1 (stereo unspecified) |
| 148 to 150 | N#Cc1cncnc1N1CCc2ccccc2CC1 |
| 195 to 197 | C=C(C(=O)NS(=O)(=O)c1cccc(C#N)c1)c1ccc(OCCOC)cc1Oc1ncc(C(F)(F)F)cc1Cl |
| 205 to 208 | CCOc1cc2cc(C(=O)OC)c(C(=O)OC)c(-c3ccnc(Cl)c3)c2cc1OC |
| 95 to 97 | COc1ccc2c(c1)c(Cc1cc(=O)n(-c3cccc([N+](=O)[O-])c3)[nH]1)c(C)n2C(=O)c1ccc(Cl)cc1 |
| 164 | CCOC(=O)C1(N2C(=O)c3cccc(F)c3C2=O)CC1 |
| 98 to 99 | O=C(CCCCCNC1(c2ccccc2Cl)C(=O)Nc2ccc(Cl)cc21)OCc1ccccc1 (stereo unspecified) |
| 173 to 175 | COC(=O)c1ccc(CNC(C)=O)cc1S(N)(=O)=O |
| 188 to 190 | Cc1c(C)c(N2CCN(c3ccc(C(F)(F)F)cc3)CC2)c(C)c2c1OC(C)(C)C2=O |

| melting point [°C] | Structure (SMILES) |
| --- | --- |
| 177 to 179 | CCOC(=O)c1cccc(S(=O)(=O)NC(=O)Nc2nc(C)nc(OC)n2)c1I |
| 185 to 186 | O=C(Nc1c(C(O)(C(F)(F)F)C(F)(F)F)ccc2ccccc12)C1CCC1 |
| 126 to 128 | COC(=O)C1CCC2C3CCC4CC(OC(C)=O)CCC4(C)C3C(NC3CCCCC3)CC12C (stereo unspecified) |
| 138 to 139 | COC(=O)C1=C(C)NC(C)=C(C(=O)OC/C=C/c2ccc(O)cc2)C1c1cccc([N+](=O)[O-])c1 (stereo unspecified) |
| 61 to 64 | COc1ccc2c(C(=O)c3ccc(OC4CCCCC4N(C)C)cc3)c(-c3ccc(OCCN4CCCC4)cc3)sc2c1 (stereo unspecified) |
| 133 to 135 | CCOCCOc1ncc2cc(-c3c(Cl)cccc3Cl)c(=N)n(C)c2n1 |
| 154 to 156 | O=c1nc(-c2c(F)cccc2F)oc(=O)n1-c1cc(Cl)c(Oc2ncc(OC(F)F)cc2Cl)c(Cl)c1 |
| 225 to 231 | O=C1NC(=O)N2Cc3ccccc3CC12 (stereo unspecified) |
| 227 to 229 | Cc1cc(-c2nnc3c4ccccc4c(OCc4cscn4)nn23)no1 |
| 221 to 230 | Cc1nc(-c2ccc3c(c2)NC(=O)CO3)c(-c2ccccc2)s1 |
| 95 to 96 | CC(=S)NC[C@H]1CN(c2ccc3c(c2)C[C@@H](C)N3C=O)C(=O)O1 |
| 155 to 156 | CC(C)(C)OC(=O)n1ncc2ccc(NC(=O)c3ccccc3O)cc21 |
| 175 to 176 | Nc1ccc2c3c(cccc13)C(=O)N(CCCCBr)C2=O |
| 89 to 91 | COc1ccc(C)c(NC(=O)CCl)c1 |
| 66 to 68 | CCCCCCOc1ccc(F)c(C(N)=O)c1Cl |
| 278 to 280 | CCC(=O)c1cc(C#N)c(=O)[nH]c1C=CN(C)C |
| > 260 | CSc1cc2c(cc1SC)C(=O)c1cc3ccccc3cc1C2=O |
| 96 to 98 | COCCN(C)c1nccc(Oc2ccc(NC(=O)c3cc(F)cc(N4CCOCC4)c3)c3ccccc23)n1 |
| 188 to 190 | CC#COc1cc(-n2c(=O)n3n(c2=S)COCC3)c(Cl)cc1Cl |
| 159 to 161 | COc1ccc2c(c1)C1(CO2)C(=O)N(C)c2ccccc21 (stereo unspecified) |

| melting point [°C] | Structure (SMILES) |
| --- | --- |
| 144 to 146 | CC1(C)CCC(C)(C)c2cc(COc3c(C(=O)O)cccc3-c3ccccc3)ccc21 |
| 90 to 92 | CC(C)S(=O)(=O)NCc1ccc2ccn(C3CCN(CCc4ccc(F)cc4)CC3)c2c1 |
| 245 to 248 | CC(=C1SC(=O)NC1=O)c1ccc(OCCOc2c(-c3ccc(F)cc3)n(C)c3ccc(F)cc3c2=O)cc1 |
| 261 to 263 | COc1cc2c(cc1S(=O)(=O)c1ccc(C)cc1)[C@@H](N1CCCCC1=O)[C@H](O)C(C)(C)O2 (relative stereo) |
| 105 to 106 | COC(=O)c1cc2ccccc2nc1C(=O)OC |
| 51 to 53 | CCCC1C(=O)Oc2c(Oc3ccccc3Cl)cccc21 (stereo unspecified) |
| 125 to 126 | CCCc1c(C(=O)C(C)C)c2ccc(C(N)=O)cc2n1C(=O)c1ccccc1Cl |
| 58 to 60 | Nc1sc2c(c1C(=O)c1cccc(CF)c1)CCN(Cc1ccccc1)C2 |
| 274 to 281 | CN1CCN(c2cccc(-c3cnn4cc(C(=O)O)cnc34)c2)CC1 |
| 228 to 229 | Cc1nc(-c2c(Cl)cc(O)cc2Cl)oc1C |
| 130 to 132 | COc1c(Br)ccc2ccc(Cl)nc12 |
| > 300 | CCOCCn1cc2c(C3C(=O)Nc4ccc(Cl)cc43)nc(NCC(C)O)nc2n1 (stereo unspecified) |
| 167 to 170 | CS(=O)(=O)Nc1ccc(Cn2c(=S)n(Cc3ccc(OC(F)(F)F)cc3)c3ccccc32)cc1 |
| 220 to 222 | Nc1ccc(S(=O)(=O)Nc2cc(Br)nc(Br)c2)cc1 |
| 160 to 162 | COc1ccc(S(=O)(=O)C2(CCCC#Cc3ccc(Cl)cc3)CC(=O)NC2=O)cc1 (stereo unspecified) |
| 69 to 72 | CCCc1sc(-c2nccs2)c2c1C(=O)CC(C)(C)C2 |
| 195 to 196 | CC(C)(NS(=O)(=O)c1ccc2oc3cc(Cl)ccc3c2c1)C(=O)NO |
| 94 to 96 | CCCCC1OC(=O)c2cc(N)c(N)cc21 (stereo unspecified) |
| 198 to 199 | O=C(O)c1ccc(C(=O)N2Cc3cccn3Cc3ccccc32)c(Cl)c1 |

More lines, now with the values behind:

| Structure (SMILES) | melting point [°C] |
| --- | --- |
| Cc1cccc(NC(=O)OC(C)(C)C)c1CNc1cccn2c(C=O)c(C)nc12 | 210 to 212 |
| Cn1cc(C(=O)C(Cl)Cl)c(=O)c(-c2cccc(C(F)(F)F)c2)c1 | 184 to 186 |
| CC(=NNc1ccccc1[N+](=O)[O-])c1ccccn1 | 145 to 146 |
| O=C1C=CC(=O)N1CCCCCCN1C(=O)C=CC1=O | 136 to 139 |
| O=[N+]([O-])c1ccccc1OC1SCC(O)C(O)C1O (stereo unspecified) | 137 to 140 |
| C=C(C=O)c1ccc(C)cc1[N+](=O)[O-] | 58.5 to 60 |
| CC(C)(C)c1nc(C(=O)O)c(Cl)c(N)c1F | 149 to 151 |
| CCCCc1ccc(NC2=NCCS2)cc1 | 73 to 75 |
| CC1(C)CCONC1=O | 115 to 119 |
| Cn1c(C2CC2)nc2cc(C(=O)NC3CC3)c(NC(=O)c3cc(C(F)(F)F)nn3-c3ncccc3Cl)c(Cl)c21 | 233 to 235 |
| O=C(O)CCSC(=S)Nc1ccc(Oc2ccc([N+](=O)[O-])cc2)cc1 | 146 |
| COc1ccc(Oc2nccnc2Cl)cc1 | 62 to 64 |
| CCCCCCCCCC(=O)Oc1ccc(N)cc1OC(=O)CCCCCCCCC | 44 to 46 |
| Nc1nc(O)c2ccnc-2[nH]1 | > 300 |
| CCCCCNC(=O)CCCCC | 37 |
| C#CCc1[nH]c(C)c2c1CN=C(c1ccccc1F)c1cc(Cl)ccc1-2 | 179 to 180 |
| CCCNC(=O)C(C#N)=C(SC)SC | 65 to 66 |
| Cc1nc(-c2ccc(C(F)(F)F)cc2)oc1COc1ccc(/C=C/C(=O)O)cc1 | 193 |
| NS(=O)(=O)c1ccc(-c2ccccc2-c2ccc(Cl)cc2)cc1 | 206 to 207 |
| CC(=O)c1ccc2c(c1)C(c1ccccc1F)=NC(C)(C)C(=O)N2 | 59 |
| Nc1cccnc1Cc1ccccc1 | 84 to 86 |

| Structure (SMILES) | melting point [°C] |
| --- | --- |
| CC1(C)CC2(CC(C)(C)C1Cc1ccccc1)C(=O)C(Cc1ccccc1)C(=O)C2Cc1ccccc1 (stereo unspecified) | 135 to 136 |
| CCCC(CCC)CCCC1COCCN1CCCCCO (stereo unspecified) | 59 to 60 |
| CC(C)(C)OC(=O)NC(Cc1ccccc1)C(O)C(N)Cc1ccccc1 (stereo unspecified) | 134 to 135 |
| O=C1CC(c2ccc(Cl)cc2)CO1 (stereo unspecified) | 52 to 54 |
| Cc1ncnn1-c1ccccc1C#N | 119 to 120 |
| FC(F)(F)c1ccc2onc(Nc3ccncc3)c2c1 | > 280 |
| Cc1ccc(-c2nn(-c3ccccc3)c(N)c2C(N)=O)cc1 | 186 to 187 |
| CCCN(CCC)C(=O)Cn1c(-c2ccc(Cl)cc2)nc2cccnc21 | 156 to 157 |
| CCCCCCCCCCC(C)OS(=O)(=O)NC(=O)Nc1c(C(C)C)cccc1C(C)C (stereo unspecified) | 110 to 112 |
| COC(=O)c1cn2c(C)c(-c3ccccc3)sc2n1 | 155 to 157 |
| CC(=O)Nc1ccc(/C=C/C(=O)NC/C=C(/C)c2ccc(C)c(CO)c2C)cn1 | 160 to 165 |
| CCOC(=O)c1cnc(-c2ccc(C(F)(F)F)cc2)s1 | 98 to 110 |
| O=C(O)c1cccc(Oc2ccc(C(F)(F)F)cn2)c1 | 146 |
| N=C(N)NC(=O)c1cc(-c2cccc(N)c2)nc2ccccc12 | 209 to 210 |
| O=C(O)CS(=O)(=O)Oc1cccc(-c2cn3c(n2)sc2ccccc23)c1 | 156 to 158 |
| CCNC=C(C(=O)C=Cc1ccc2c(c1)OCO2)C(=O)OC | 124 to 125 |
| O=C(O)CCc1ccc(SCc2coc(/C=C/c3ccccc3)n2)cc1 | 120 to 121 |
| CCCN(CCC)Cc1coc(-c2ncn3c2CN(C)C(=O)c2c(Cl)cccc2-3)n1 | 105 to 107 |
| CCNC(=O)Nc1nc2ccc(Cc3ccccn3)cc2s1 | 184 to 185 |
| N#CC1=C(c2ccccc2)Nc2n[nH]cc2C1c1cccc2ccccc12 (stereo unspecified) | 174 |
| CC[C@H](CC[N+](=O)[O-])C(=O)N[C@@H](Cc1ccccc1)C(=O)OC | 86.2 to 87.8 |
